Measured values published in PubChem BioAssay (NCI).
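Five concentrations, 48 hours, 96-well plates. At the GI50, growth is halved. TGI: total growth inhibition.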

How the values were obtained:
Experiment in all cases: NCI-60 cell line screen, 48 h
786-0 renal = test system: 786-0 renal
A549 NSCLC = test system: A549 NSCLC
COLO 205 colon = test system: COLO 205 colon
HOP-62 NSCLC = test system: HOP-62 NSCLC
IGROV1 ovarian = test system: IGROV1 ovarian
OVCAR-3 ovarian = test system: OVCAR-3 ovarian
RPMI-8226 leukemia = test system: RPMI-8226 leukemia
SK-MEL-5 melanoma = test system: SK-MEL-5 melanoma
SK-OV-3 ovarian = test system: SK-OV-3 ovarian
SNB-75 CNS = test system: SNB-75 CNS

Structure (SMILES) | GI50 (786-0 renal) | TGI (786-0 renal) | GI50 (A549 NSCLC) | TGI (A549 NSCLC) | GI50 (COLO 205 colon) | TGI (COLO 205 colon) | TGI (HOP-62 NSCLC) | GI50 (IGROV1 ovarian) | TGI (IGROV1 ovarian) | GI50 (OVCAR-3 ovarian) | TGI (OVCAR-3 ovarian) | GI50 (RPMI-8226 leukemia) | TGI (RPMI-8226 leukemia) | GI50 (SK-MEL-5 melanoma) | GI50 (SK-OV-3 ovarian) | TGI (SK-OV-3 ovarian) | GI50 (SNB-75 CNS) | TGI (SNB-75 CNS) | GI50 (HOP-62 NSCLC) | TGI (SK-MEL-5 melanoma)
O=c1[nH]nc(-c2ccccc2)c2c(-c3ccccc3)onc12 | 5.47 µM | > 100 µM | 0.529 µM | > 100 µM | 0.505 µM | 9.89 µM | > 100 µM | 0.615 µM | > 100 µM | 0.358 µM | 1.44 µM | 0.474 µM | > 55.4 µM | 0.352 µM | 0.981 µM | 53.6 µM | 0.96 µM | > 21.9 µM | – | –
O=[N+]([O-])c1cc2c(ccc3occc32)o1 | 2.37 µM | 5 µM | 3.21 µM | 12.4 µM | 1.57 µM | 3.12 µM | 21.5 µM | 1.55 µM | 7.32 µM | 3.77 µM | 15.8 µM | 4 µM | 44.3 µM | 1.17 µM | 3.03 µM | 9.66 µM | 3.08 µM | 53.9 µM | 3.94 µM | 2.54 µM
CC1=NN(C(=O)c2nn(-c3ccc(Cl)cc3)cc2O)C(=O)C1 | 5.33 µM | > 60.4 µM | 2.92 µM | > 100 µM | 3.78 µM | > 82.6 µM | > 77.6 µM | 0.505 µM | 41 µM | 1.34 µM | > 27.9 µM | 1.07 µM | > 88.9 µM | 3.45 µM | 1.79 µM | > 100 µM | 0.532 µM | > 100 µM | 1.13 µM | > 36.9 µM
CN(C)c1ncnc2c1ccn2C1OC(CO)C(O)C1O (stereo not drawn) | 3.98 µM | 97.8 µM | 13.6 µM | > 100 µM | 18.8 µM | > 100 µM | > 100 µM | 0.237 µM | 4.22 µM | 0.938 µM | > 34.6 µM | 5.88 µM | > 71.4 µM | > 100 µM | 0.884 µM | 21.4 µM | 1.64 µM | 22.5 µM | 1.71 µM | > 100 µM
O=C1NN=CN2C(=O)CCC12 (stereo not drawn) | – | > 100 µM | – | > 100 µM | – | > 100 µM | > 100 µM | – | > 100 µM | – | > 100 µM | – | > 100 µM | – | – | > 100 µM | – | > 100 µM | – | > 100 µM
CC(C)=CCc1cc(C2COc3cc4c(c(O)c3C2=O)C=CC(C)(C)O4)c(O)cc1O (stereo not drawn) | – | 36.7 µM | – | 27.9 µM | – | 49.9 µM | 32.3 µM | – | 36.4 µM | – | 27.3 µM | – | 24.4 µM | – | – | 29.8 µM | – | 36 µM | – | 25 µM
O=C(Cn1c2ccccc2c2ccncc21)N/N=C\c1ccc2ccccc2c1 | 13.8 µM | 30 µM | 20.9 µM | 57.1 µM | 25.8 µM | > 100 µM | 39.3 µM | 13 µM | 38.3 µM | 12.2 µM | 36.5 µM | 7.88 µM | > 100 µM | 23 µM | 18.2 µM | 39.4 µM | 22.2 µM | 61.6 µM | 17.3 µM | > 100 µM
COc1ccc2c(c1OC)C(=O)O[C@@H]2[C@H]1c2c(c(Br)c3c(c2OC)OCO3)CCN1C | 12 µM | > 100 µM | 8.57 µM | > 100 µM | 27.1 µM | > 100 µM | 91.2 µM | 7.77 µM | > 100 µM | 10.6 µM | 40.8 µM | 6.97 µM | > 100 µM | 4.12 µM | > 100 µM | > 100 µM | 93.3 µM | > 100 µM | 6.47 µM | > 100 µM
COc1cc2nncc(SCc3ccc(Cl)c(Cl)c3)c2cc1OC | – | > 100 µM | – | > 100 µM | – | > 100 µM | > 100 µM | – | > 100 µM | – | > 100 µM | – | > 100 µM | – | – | > 100 µM | – | 73 µM | – | > 100 µM
O=C(CC(=O)c1ccccc1)C(=O)NC12CC3CC(CC(C3)C1)C2 | – | 99.7 µM | – | > 100 µM | – | > 64.8 µM | > 100 µM | – | > 100 µM | – | > 100 µM | – | > 66 µM | – | – | > 100 µM | – | > 100 µM | – | > 100 µM
CN(CCCN(C)CCC1CCCCC1)CCC1CCCCC1 | 3.46 µM | 13.7 µM | 9.8 µM | 24.1 µM | 1.77 µM | 3.27 µM | 17.7 µM | 1.09 µM | 5.54 µM | 3.95 µM | 15 µM | 1.47 µM | 5.09 µM | 1.32 µM | 5.34 µM | 17.1 µM | 2.04 µM | 6.39 µM | 5.3 µM | 2.61 µM
O=C1c2ccn(CCCCN(CCO)CCO)c2C(=O)c2c1c(O)c1ccccc1c2O | 5.39 µM | > 48.4 µM | 2.32 µM | 7.33 µM | 4.45 µM | > 100 µM | > 50.5 µM | 4.97 µM | > 100 µM | 22.2 µM | > 100 µM | 5.62 µM | 14.8 µM | 13.2 µM | 7.74 µM | > 43.3 µM | 21.4 µM | 65.5 µM | 16.3 µM | 78.9 µM
